pIC50: −log10 of the molar value.
How the values were obtained:
[1] = system: DNA methyltransferase (DNMT); conditions: selectivity in a methyltransferase enzyme panel including one DNMT, according to the authors; cited from earlier work
Hep3B = assay: Cell proliferation assay (CellTiter 96 Aqueous One Solution); format: cell-based; conditions: Homo sapiens, hepatocellular carcinoma cells, 48 hours of treatment
Description: (§1) Cell proliferation was analyzed after 48 hours of in vitro treatment using the CellTiter 96 Aqueous One Solution Cell Proliferation Assay (Promega, Madison, W). This is a colorimetric method for determining the number of viable cells in proliferation.
(§2) For the assay, suspension cells were cultured by triplicate at a density of 1×10^6 cells/ml in 96-well plates (100.000 cells/well, 100 μl/well), except for HepG2, Hep3B and PLC/PRF/5 cell lines which were cultured at a density of 3000 cells/well, 100 μl/well).
(§3) Adherent cells were obtained from 80-90% confluent flasks and 100 μl of cells were seeded at a density of 5000 cells/well in 96-well plates by triplicate. Before addition of the compounds, adherent cells were allowed to attach to the bottom of the wells for 12 hours. In all cases, only the 60 inner wells were used to avoid any border effects.
(§4) After 48 hours of treatment, plates with suspension cells were centrifuged at 800g for 10 minutes and medium was removed. The plates with adherent cells were flicked to remove medium. Then, cells were incubated with 100 μl/well of medium and 20 μl/well of CellTiter 96 Aqueous One Solution reagent. After 1-3 hours of incubation at 37° C., absorbance was measured at 490 nm in a 96-well plate reader. The background absorbance was measured in wells with only cell line medium and solution reagent. Data was calculated as a percentage of total absorbance of treated cell/absorbance of non treated cells.

HepG2 = assay: as above; format: cell-based; conditions: Homo sapiens, hepatocellular carcinoma cells, 48 hours of treatment
Description: as §1, §2, §3, §4

CEMO-1 = assay: as above; format: cell-based; conditions: acute lymphocytic leukemia (ALL) cells, 48 hours of treatment
Description: as §1, §2, §3, §4

human DNMT1 = target: T1, human DNMT1 (Homo sapiens, UniProt P26358); assay: DNMT1 enzyme activity assay (TR-FRET, EPIgeneous methyltransferase assay); format: biochemical; conditions: human DNMT1, 15 minutes at 37° C.
T1 construct: purchased Reaction Biology Corp. DMT-21-124
T1 sequence (P26358 whole entry): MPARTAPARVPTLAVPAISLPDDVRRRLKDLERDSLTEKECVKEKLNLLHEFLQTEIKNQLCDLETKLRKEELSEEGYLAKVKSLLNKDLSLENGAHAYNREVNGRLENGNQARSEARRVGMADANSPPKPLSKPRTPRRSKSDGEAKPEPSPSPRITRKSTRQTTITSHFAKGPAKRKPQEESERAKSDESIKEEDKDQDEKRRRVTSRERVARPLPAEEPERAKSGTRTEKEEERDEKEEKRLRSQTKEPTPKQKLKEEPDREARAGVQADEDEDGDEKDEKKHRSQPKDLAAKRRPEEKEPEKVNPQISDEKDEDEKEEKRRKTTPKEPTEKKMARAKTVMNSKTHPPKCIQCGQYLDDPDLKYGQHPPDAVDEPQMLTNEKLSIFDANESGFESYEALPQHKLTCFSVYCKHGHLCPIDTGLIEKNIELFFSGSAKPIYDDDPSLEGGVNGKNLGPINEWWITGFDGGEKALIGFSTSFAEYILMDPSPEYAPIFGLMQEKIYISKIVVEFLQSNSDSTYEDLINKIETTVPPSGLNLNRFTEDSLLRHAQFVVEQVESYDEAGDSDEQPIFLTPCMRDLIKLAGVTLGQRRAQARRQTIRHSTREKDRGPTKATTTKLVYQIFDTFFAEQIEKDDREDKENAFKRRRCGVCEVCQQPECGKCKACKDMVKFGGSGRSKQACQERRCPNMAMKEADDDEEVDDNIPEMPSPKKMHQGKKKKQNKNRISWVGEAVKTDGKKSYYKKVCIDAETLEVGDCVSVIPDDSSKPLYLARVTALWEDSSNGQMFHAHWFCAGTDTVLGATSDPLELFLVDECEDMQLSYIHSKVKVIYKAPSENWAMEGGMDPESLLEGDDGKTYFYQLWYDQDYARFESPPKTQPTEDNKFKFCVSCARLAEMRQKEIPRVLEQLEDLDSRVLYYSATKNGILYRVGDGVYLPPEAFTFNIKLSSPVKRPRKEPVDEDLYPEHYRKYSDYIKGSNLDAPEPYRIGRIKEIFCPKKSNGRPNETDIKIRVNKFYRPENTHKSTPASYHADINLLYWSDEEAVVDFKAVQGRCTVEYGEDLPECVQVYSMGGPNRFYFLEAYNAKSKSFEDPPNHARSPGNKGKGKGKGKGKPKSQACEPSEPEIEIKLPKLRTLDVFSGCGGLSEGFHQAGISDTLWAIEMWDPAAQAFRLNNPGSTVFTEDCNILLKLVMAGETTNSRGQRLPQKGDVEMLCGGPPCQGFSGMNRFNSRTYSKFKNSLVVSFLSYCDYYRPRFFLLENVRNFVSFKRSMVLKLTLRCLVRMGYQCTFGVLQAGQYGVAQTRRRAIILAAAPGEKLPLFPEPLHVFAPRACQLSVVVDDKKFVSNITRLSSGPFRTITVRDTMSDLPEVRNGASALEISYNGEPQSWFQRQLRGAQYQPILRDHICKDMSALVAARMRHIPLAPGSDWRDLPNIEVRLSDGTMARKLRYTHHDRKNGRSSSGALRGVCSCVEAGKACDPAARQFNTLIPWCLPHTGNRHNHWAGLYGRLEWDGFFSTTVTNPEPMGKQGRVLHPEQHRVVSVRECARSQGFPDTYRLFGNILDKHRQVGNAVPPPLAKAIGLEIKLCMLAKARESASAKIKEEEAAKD
Description: DNMT1 Enzyme Activity Assay
The biochemical assay to measure DNMT1 enzyme activity relies on time-resolved fluorescence energy transfer (TR-FRET) between lumi4-Tb (donor) and d2 (acceptor) using the EPIgeneous methyltransferase assay (CisBio Cat#62SAHPEB). […] TR-FRET signal is inversely proportional to the concentration of SAH, product of DNMT1 enzyme activity, in the sample. The human DNMT1 was obtained from Reaction Biology Corp. (Cat# DMT-21-124).
Enzyme activity assay was carried out in a white 384-well plate in a final volume of 20 μl, as follow: • 4 μl of vehicle or studied compound 2.5× concentrated prepared in assay buffer (50 mM Tris-HCl, 1 mM EDTA, 1 mM DTT, 0.1% Triton X-100, 5% glycerol pH 7.5). Final percentage of DMSO was 0.5%. • 2 μl of 1 nM DNMT1 enzyme diluted in assay buffer.
(§5) For each well, fluorescence was measured at 620 nm and 665 nm. A ratio (665 nm/620 nm) was then calculated in order to minimize medium interferences. Positive control was obtained in the presence of the vehicle of the compounds. Calculated IC50 values were determined using GraphPrism using 4-parameters inhibition curve.

human G9a enzyme = target: T2, human G9a enzyme (Homo sapiens, UniProt Q96KQ7); assay: G9a enzyme activity assay (TR-FRET); format: biochemical; conditions: 1 hour at room temperature
T2 construct: purchased BPS Biosciences 51001; host or cells: baculovirus infected Sf9 cells
T2 sequence (Q96KQ7 1-1210): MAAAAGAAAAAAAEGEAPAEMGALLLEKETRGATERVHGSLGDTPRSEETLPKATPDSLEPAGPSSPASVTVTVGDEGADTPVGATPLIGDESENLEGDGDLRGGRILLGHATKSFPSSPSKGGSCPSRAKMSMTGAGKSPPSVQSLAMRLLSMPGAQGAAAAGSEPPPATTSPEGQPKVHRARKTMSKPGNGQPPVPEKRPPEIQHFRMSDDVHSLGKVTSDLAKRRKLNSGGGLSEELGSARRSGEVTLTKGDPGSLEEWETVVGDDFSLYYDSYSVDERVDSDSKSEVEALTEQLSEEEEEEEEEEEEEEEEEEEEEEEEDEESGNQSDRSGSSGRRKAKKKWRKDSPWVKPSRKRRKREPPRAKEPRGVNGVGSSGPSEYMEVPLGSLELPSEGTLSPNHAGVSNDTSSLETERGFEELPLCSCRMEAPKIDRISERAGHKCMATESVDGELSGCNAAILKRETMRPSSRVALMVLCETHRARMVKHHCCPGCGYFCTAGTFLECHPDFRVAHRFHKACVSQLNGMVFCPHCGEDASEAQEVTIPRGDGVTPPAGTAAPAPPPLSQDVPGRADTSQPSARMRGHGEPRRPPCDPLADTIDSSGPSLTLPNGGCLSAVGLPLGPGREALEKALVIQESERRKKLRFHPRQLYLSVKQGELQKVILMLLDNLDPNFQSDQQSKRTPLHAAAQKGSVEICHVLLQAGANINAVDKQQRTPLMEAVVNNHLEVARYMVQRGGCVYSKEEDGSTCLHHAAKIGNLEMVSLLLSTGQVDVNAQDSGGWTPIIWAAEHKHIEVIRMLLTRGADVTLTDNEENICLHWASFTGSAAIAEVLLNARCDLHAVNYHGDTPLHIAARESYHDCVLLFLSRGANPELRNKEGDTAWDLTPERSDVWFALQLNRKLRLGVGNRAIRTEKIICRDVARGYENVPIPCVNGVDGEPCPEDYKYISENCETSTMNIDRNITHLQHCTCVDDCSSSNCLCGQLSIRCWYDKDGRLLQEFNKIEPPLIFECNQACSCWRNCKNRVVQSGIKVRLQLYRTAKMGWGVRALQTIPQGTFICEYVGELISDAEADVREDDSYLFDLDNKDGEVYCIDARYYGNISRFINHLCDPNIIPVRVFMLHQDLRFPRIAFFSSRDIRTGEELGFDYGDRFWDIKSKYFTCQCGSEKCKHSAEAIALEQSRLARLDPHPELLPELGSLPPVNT
Description: G9a Enzyme Activity Assay
The biochemical assay to measure G9a enzyme activity relies on time-resolved fluorescence energy transfer (TR-FRET) between europium cryptate (donor) and XL665 (acceptor). […] The human G9a enzyme expressed in a baculovirus infected Sf9 cell expression system was obtained from BPS Biosciences (Cat. #51001). Enzyme activity assay was carried out in a white 384-well plate in a final volume of 20 μl, as follow: • 4 μl of vehicle or studied compound 2.5× concentrated prepared in assay buffer (50 mM Tris-HCl, 10 mM NaCl, 4 mM DTT, 0.01% Tween-20 pH9). Final percentage of DMSO was 0.5%. • 2 μl of 1 nM G9a enzyme diluted in assay buffer. […] Final concentration 150 nM. • Then, add 5 μl of streptavidin XL665 beads. Final concentration of 16 μM. • Read the plate after 1 hour of incubation at room temperature.
as §5, with “compounds. Negative control was obtained in the absence of G9a enzyme activity.” for “compounds.”

PLC/PRF/5 = assay: Cell proliferation assay (CellTiter 96 Aqueous One Solution); format: cell-based; conditions: Homo sapiens, hepatocellular carcinoma cells, 48 hours of treatment
Description: as §1, §2, §3, §4

SMILES: COc1cc2nc(N3CCN(C)CC3)cc(NC3CCN(Cc4ccccc4)CC3)c2cc1OC [Compound 42]
- activity against the DNA methyltransferase [1]: inactive

SMILES: COc1cc2c(N(C)C3CCN(C)CC3)cc(-c3ccc(C)o3)nc2cc1OCCCN1CCCC1 [Compound 1-02]
- GI50 (Hep3B): 1000 to 10000 nM
- GI50 (HepG2): 1000 to 10000 nM
- GI50 (CEMO-1): ≥ 10000 nM

SMILES: COc1cc2c(N(C)CC3CCN(C)CC3)cc(-c3ccc(C)o3)nc2cc1OCCCN1CCCC1 [Compound 1-03]
- GI50 (Hep3B): 100 to 1000 nM
- GI50 (HepG2): 100 to 1000 nM
- GI50 (CEMO-1): 1000 to 10000 nM
- pIC50 (human DNMT1): 6.30 to 7.00
- pIC50 (human G9a enzyme): 5.00 to 6.00

SMILES: COc1cc2nc(N3CCCN(C)CC3)cc(NC3CCN(Cc4ccccc4)CC3)c2cc1OC [Compound 41]
- activity against the DNA methyltransferase [1]: inactive

SMILES: CCc1ccc(-c2cc(N(C)CC3CCN(C)CC3)c3cc(OC)c(OCCCN4CCCC4)cc3n2)o1 [Compound 1-04]
- GI50 (Hep3B): 100 to 1000 nM
- GI50 (HepG2): 100 to 1000 nM
- GI50 (CEMO-1): 100 to 1000 nM
- pIC50 (human DNMT1): 6.30 to 7.00
- pIC50 (human G9a enzyme): 6.00 to 6.30

SMILES: COc1cc2c(OC3CCN(C)CC3)cc(-c3ccc(C)o3)nc2cc1OCCCN1CCCC1 [Compound 3-01, 6-methoxy-2-(5-methyl-2-furyl)-4-[(1-methyl-4-piperidyl)oxy]-7-(3-pyrrolidin-1-ylpropoxy)quinoline]
- GI50 (Hep3B): 1000 to 10000 nM
- GI50 (HepG2): 1000 to 10000 nM
- GI50 (CEMO-1): 1000 to 10000 nM
- GI50 (PLC/PRF/5): 1000 to 10000 nM
